SMILES strings stand for the structures.

One may read the melting point as the temperature, or range, at which the solid turns liquid. On to `CC(C)(C)n1cnc(-c2ccc(F)cc2)c1-c1ccnc(N)n1` [ZH9-190, 4-(1-(Tert-butyl)-4-(4-fluorophenyl)-1H-imidazol-5-yl)pyrimidin-2-amine], for which the melting point lay in the range of 189 to 197 °C. With `OCCNc1nccc(-c2c(-c3ccc(F)cc3)ncn2C2CCCCC2)n1` [compound 84, 2-((4-(1-Cyclohexyl-4-(4-fluorophenyl)-1H-imidazol-5-yl)pyrimidin-2-yl)amino)ethan-1-ol], the melting point was in the range of 180 to 184 °C. In turn, `CCn1cnc(-c2ccc(F)cc2)c1-c1ccnc(N)n1` [ZH-6, 4-(1-(Ethyl)-4-(4-fluorophenyl)-1H-imidazol-5-yl)pyrimidin-2-amine] gave a melting point of 204 to 212 °C.

For the origin of these results see patent US20200079757A1, “COMPOUNDS FOR THE TREATMENT OF RESPIRATORY DISEASES” (THE UNIVERSITY OF MELBOURNE, priority 2017, published 2020).
